What was measured:
[1] = biological target: T1, Avi-KRAS G12R (1-169) GppNHp/RAF1 RBD-3xFLAG (52-151) (Homo sapiens, UniProt P01116, G12R); assay: Raf1-KRAS G12R-GppNHP disruption HTRF assay (Biological Example 1); assay type: binding
T1 construct: Avi-KRAS G12R (1-169)
Procedure, shortened: (§1)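 Measured with a KRAS/RAF1 HTRF assay at pH 7.5 in 10% DMSO, with two 1 h room-temperature incubations with shaking.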

[2] = biological target: T2, Avi-KRAS WT (1-169) GppNHp/RAF1 RBD-3xFLAG (52-151) (Homo sapiens, UniProt P01116); assay: Raf1-KRAS WT-GppNHP disruption HTRF assay (Biological Example 1); assay type: binding
T2 construct: Avi-KRAS WT (1-169)
Procedure, shortened: as §1

[3] = biological target: T3, Avi-KRAS G12D (2-169) GTP/RAF1 RBD-3xFLAG (51-131) (Homo sapiens, UniProt P01116, G12D); assay: Raf1-KRAS G12D-GTP disruption HTRF assay (Biological Example 3); assay type: binding; details: KRAS G12D, GTP-loaded
T3 construct: Avi-KRAS G12D (2-169)
Procedure, shortened: (§2)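 50 nM Avi-KRAS (2-169) GTP/RAF1 RBD complex; 75 nM RBD-Avi; pH 7.5 Tris buffer, 10% DMSO; cpd 30 μM top, 3x, 10 pts; 1 h RT, 700 rpm; HTRF, % of DMSO.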

[4] = biological target: T4, Avi-KRAS G12V (2-169) GTP/RAF1 RBD-3xFLAG (51-131) (Homo sapiens, UniProt P01116, G12V); assay: Raf1-KRAS G12V-GTP disruption HTRF assay (Biological Example 3); assay type: binding; details: KRAS G12V, GTP-loaded
T4 construct: Avi-KRAS G12V (2-169)
Procedure, shortened: as §2

SW620 cells (KRAS G12V) = assay: Cell-based pERK HTRF assay in SW620 cell (Biological Example 4)
Procedure, shortened: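 SW620 cells were treated for 4 h with compound in a 9-point half-log series from 1 μM top (0.25% DMSO), then lysed. Phospho-ERK was detected by HTRF with d2 and Eu cryptate antibodies after 4–24 h at room temperature, read at 615 nm emission.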

[5] = KRAS G12R, GppNHp-loaded, class symbols
[6] = KRAS WT, GppNHp-loaded, class symbols
[7] = Homo sapiens, SW-620, SW620 (KRAS G12V) cells
[8] = Homo sapiens, SW-620, SW620 (KRAS G12V) cells, pERK HTRF, class symbols
[9] = KRAS G12R, GppNHp-loaded, Table 11
[10] = KRAS WT, GppNHp-loaded, Table 11
[11] = SW620 (KRAS G12V) cells, pERK HTRF
[12] = Homo sapiens, SW-620, SW620 (KRAS G12V) cells, pERK HTRF

T2 sequence (P01116 1-169 isoform P01116-2): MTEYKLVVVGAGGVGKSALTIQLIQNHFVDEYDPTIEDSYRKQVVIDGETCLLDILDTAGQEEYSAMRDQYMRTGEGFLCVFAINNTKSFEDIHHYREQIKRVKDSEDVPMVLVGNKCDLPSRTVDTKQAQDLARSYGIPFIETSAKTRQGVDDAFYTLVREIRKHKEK
T4 sequence (P01116 2-169 isoform P01116-2 G12V): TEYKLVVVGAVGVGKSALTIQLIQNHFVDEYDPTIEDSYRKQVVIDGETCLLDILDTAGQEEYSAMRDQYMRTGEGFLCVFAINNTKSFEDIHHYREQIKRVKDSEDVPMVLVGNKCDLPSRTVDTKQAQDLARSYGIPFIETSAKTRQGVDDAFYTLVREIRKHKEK
T3 sequence (P01116 2-169 isoform P01116-2 G12D): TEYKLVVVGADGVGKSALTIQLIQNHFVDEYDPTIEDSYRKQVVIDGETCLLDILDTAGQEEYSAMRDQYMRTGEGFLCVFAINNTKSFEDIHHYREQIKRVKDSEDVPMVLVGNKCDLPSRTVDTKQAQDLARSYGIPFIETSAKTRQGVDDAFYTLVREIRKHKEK
T1 sequence (P01116 1-169 isoform P01116-2 G12R): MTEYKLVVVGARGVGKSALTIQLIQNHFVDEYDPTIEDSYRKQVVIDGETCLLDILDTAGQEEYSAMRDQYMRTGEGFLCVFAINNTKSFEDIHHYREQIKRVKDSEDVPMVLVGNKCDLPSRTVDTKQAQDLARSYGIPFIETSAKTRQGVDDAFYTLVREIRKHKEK

Row | Structure (SMILES) | IC50 [1, 5] | IC50 [2, 6] | IC50 [3] | IC50 [4] | IC50 (SW620 cells (KRAS G12V); [7]) | IC50 (SW620 cells (KRAS G12V); [8]) | IC50 [1, 9] | IC50 [2, 10] | IC50 (SW620 cells (KRAS G12V); [11]) | IC50 ([1]; KRAS G12R-GppNHp/RAF1 RBD HTRF) | IC50 ([2]; KRAS WT-GppNHp/RAF1 RBD HTRF) | IC50 (SW620 cells (KRAS G12V); [12]) | IC50 (SW620 cells (KRAS G12V); SW620 (KRAS G12V) cells)
1 | CC(=O)N1CC[C@@H](N(C)c2nc(OC[C@@]34CCCN3C[C@H](F)C4)nc3c(F)c(-c4ccc(F)c5sc(N)c(C#N)c45)c(C(F)(F)F)cc23)[C@H]1C (single isomer, unassigned) [Compound 193] |  |  | 100 to 1000 nM | 100 to 1000 nM | < 100 nM |  | < 100 nM | < 100 nM | < 100 nM |  |  |  | 
2 | CCN(c1nc(OC[C@@]23CCCN2C[C@H](F)C3)nc2c(F)c(-c3ccc(F)c4sc(N)c(C#N)c34)c(C(F)(F)F)cc12)[C@H]1CC(=O)N(CC(F)F)C1 (atropisomer, axis not shown) [Compound 613] | 100 to 1000 nM | 100 to 1000 nM | ≤ 100 nM | ≤ 100 nM | < 100 nM | < 100 nM |  |  |  |  |  |  | 
3 | C[C@@H]1[C@H](N(C)c2nc(OC[C@@]34CCCN3C[C@H](F)C4)nc3c(F)c(-c4ccc(F)c5sc(N)c(C#N)c45)c(C(F)(F)F)cc23)CCN1C(=O)C1CC1 (atropisomer, axis not shown) [Compound 333] |  |  | 100 to 1000 nM | 100 to 1000 nM | < 100 nM |  |  |  | < 100 nM | < 100 nM | < 100 nM |  | 
4 | [2H]C1([2H])O[C@@H]2C[C@H]1N(c1nc(OC[C@@]34CCCN3C[C@H](F)C4)nc3c(F)c(-c4ccc(F)c5sc(N)c(C#N)c45)c(C(F)(F)F)cc13)C2 [Compound 371] |  |  | 100 to 1000 nM | 1000 to 10000 nM | < 100 nM |  |  |  |  | 100 to 1000 nM | 100 to 1000 nM | < 100 nM | 
5 | N#Cc1c(N)sc2c(F)ccc(-c3c(C(F)(F)F)cc4c(N5C[C@H]6C[C@@H]5CO6)nc(OC[C@@]56CCCN5C[C@H](F)C6)nc4c3F)c12 [Compound 253, 2-amino-7-fluoro-4-[8-fluoro-2-[[(2R,8S)-2-fluoro-1,2,3,5,6,7-hexahydropyrrolizin-8-yl]methoxy]-4-[(1R,4R)-2-oxa-5-azabicyclo[2.2.1]heptan-5-yl]-6-(trifluoromethyl)quinazolin-7-yl]benzothiophene-3-carbonitrile] |  |  | 100 to 1000 nM | 1000 to 10000 nM | < 100 nM |  | 100 to 1000 nM | 100 to 1000 nM |  |  |  | 100 to 1000 nM | 
6 | N#Cc1c(N)sc2c(F)ccc(-c3c(C(F)(F)F)cc4c(N5CCn6nc(C(=O)N7CCOCC7)cc6C5)nc(OCC56CCCN5CC(F)C6)nc4c3F)c12 (stereo not drawn) [Compound 646] | < 100 nM | 100 to 1000 nM | 100 to 1000 nM | 100 to 1000 nM | < 100 nM | < 100 nM |  |  |  |  |  |  | 
7 | CC(=O)N1CC(N(C)c2nc(OCC34CCCN3CC(F)C4)nc3c(F)c(-c4ccc(F)c5sc(N)c(C#N)c45)c(C(F)(F)F)cc23)CC1C (stereo not drawn) [Compound 291] |  |  | 100 to 1000 nM | 100 to 1000 nM |  |  |  |  | < 100 nM | 100 to 1000 nM | 100 to 1000 nM |  | < 100 nM
8 | CCN(c1nc(OC[C@@]23CCCN2C[C@H](F)C3)nc2c(F)c(-c3ccc(F)c4sc(N)c(C#N)c34)c(C(F)(F)F)cc12)[C@H]1C[C@H](COC)N(C(=O)C2CC2)C1 (atropisomer, axis not shown) [Compound 696] | < 100 nM | < 100 nM | ≤ 100 nM | 100 to 1000 nM | < 100 nM | < 100 nM |  |  |  |  |  |  | 
9 | N#Cc1c(N)sc2c(F)ccc(-c3c(C(F)(F)F)cc4c(N5CC6CC(C5)O6)nc(OC[C@@]56CCCN5C[C@H](F)C6)nc4c3F)c12 (single isomer, unassigned) [Compound 275] |  |  | 100 to 1000 nM | 100 to 1000 nM | < 100 nM |  | 100 to 1000 nM | 100 to 1000 nM |  |  |  | < 100 nM | 
10 | CCN(c1nc(OC[C@@]23CCCN2C[C@H](F)C3)nc2c(F)c(-c3ccc(F)c4sc(N)c(C#N)c34)c(C(F)(F)F)cc12)[C@H]1CCN(C(=O)[C@@H]2C[C@@H]2C)C1 (atropisomer, axis not shown) [Compound 689] | < 100 nM | 100 to 1000 nM | 100 to 1000 nM | 100 to 1000 nM | < 100 nM | < 100 nM |  |  |  |  |  |  | 
11 | CN(c1nc(OC[C@@]23CCCN2C[C@H](F)C3)nc2c(F)c(-c3ccc(F)c4sc(N)c(C#N)c34)c(C(F)(F)F)cc12)[C@H]1C[C@@H](O)C1 [Compound 19, 2-amino-7-fluoro-4-((S)-8-fluoro-2-(((2R,7aS)-2-fluorotetrahydro-1H-pyrrolizin-7a(5H)-yl)methoxy)-4-(((1s,3R)-3-hydroxycyclobutyl)(methyl)amino)-6-(trifluoromethyl)quinazolin-7-yl)benzo[b]thiophene-3-carbonitrile] |  |  | ≤ 100 nM | 100 to 1000 nM |  |  | < 100 nM | < 100 nM | < 100 nM |  |  |  | < 100 nM
12 | N#Cc1c(N)sc2c(F)ccc(-c3c(C(F)(F)F)cc4c(N5CCOCC5)nc(OC[C@@]56CCCN5C[C@H](F)C6)nc4c3F)c12 (single isomer, unassigned) [Compound 198] |  |  | 100 to 1000 nM | 100 to 1000 nM | < 100 nM |  | 100 to 1000 nM | 100 to 1000 nM | < 100 nM |  |  |  | 
13 | CCN(c1nc(OC[C@@]23CCCN2C[C@H](F)C3)nc2c(F)c(-c3ccc(F)c4sc(N)c(C#N)c34)c(C(F)(F)F)cc12)[C@@H]1CCN(C(C)=O)C1 [Compound 268] |  |  | 100 to 1000 nM | 100 to 1000 nM | < 100 nM |  | < 100 nM | < 100 nM |  |  |  | < 100 nM | 
14 | C[C@H]1Cn2nc(C(=O)N(C)C)cc2CN1c1nc(OC[C@@]23CCCN2C[C@H](F)C3)nc2c(F)c(-c3ccc(F)c4sc(N)c(C#N)c34)c(C(F)(F)F)cc12 (atropisomer, axis not shown) [Compound 610] | 100 to 1000 nM | 100 to 1000 nM | 100 to 1000 nM | 100 to 1000 nM | < 100 nM | < 100 nM |  |  |  |  |  |  | 

Second part, the compound after the results:

Row | IC50 [1, 5] | IC50 [2, 6] | IC50 [3] | IC50 [4] | IC50 (SW620 cells (KRAS G12V); [7]) | IC50 (SW620 cells (KRAS G12V); [8]) | IC50 [1, 9] | IC50 [2, 10] | IC50 (SW620 cells (KRAS G12V); [11]) | IC50 ([1]; KRAS G12R-GppNHp/RAF1 RBD HTRF) | IC50 ([2]; KRAS WT-GppNHp/RAF1 RBD HTRF) | IC50 (SW620 cells (KRAS G12V); [12]) | IC50 (SW620 cells (KRAS G12V); SW620 (KRAS G12V) cells) | Structure (SMILES)
15 | < 100 nM | < 100 nM | 100 to 1000 nM | 100 to 1000 nM | < 100 nM | < 100 nM |  |  |  |  |  |  |  | CCN(c1nc(OC[C@@]23CCCN2C[C@H](F)C3)nc2c(F)c(-c3ccc(F)c4sc(N)c(C#N)c34)c(C(F)(F)F)cc12)[C@H]1CCN(C(=O)c2ccns2)C1 (atropisomer, axis not shown) [Compound 726]
16 | < 100 nM | < 100 nM | ≤ 100 nM | ≤ 100 nM | < 100 nM | < 100 nM |  |  |  |  |  |  |  | CCN(c1nc(OC[C@@]23CCCN2C[C@H](F)C3)nc2c(F)c(-c3ccc(F)c4sc(N)c(C#N)c34)c(C(F)(F)F)cc12)[C@H]1CCN(C(=O)N(C)C)[C@@H]1C (atropisomer, axis not shown) [Compound 749]
17 | 100 to 1000 nM | 100 to 1000 nM | 100 to 1000 nM | 1000 to 10000 nM | < 100 nM | < 100 nM |  |  |  |  |  |  |  | CCN(c1nc(OC[C@@H]2C[C@@H](OC)CN2C)nc2c(F)c(-c3ccc(F)c4sc(N)c(C#N)c34)c(C(F)(F)F)cc12)[C@H]1CCN(C(=O)C(C)C)C1 [Compound 706]
18 | < 100 nM | < 100 nM | 100 to 1000 nM | 100 to 1000 nM | < 100 nM | < 100 nM |  |  |  |  |  |  |  | CCN(c1nc(OC[C@]23CCCN2C[C@H](F)C3)nc2c(F)c(-c3ccc(F)c4sc(N)c(C#N)c34)c(C(F)(F)F)cc12)[C@H]1CCN(C(=O)C(C)C)C1 [Compound 705]
19 | 1000 to 10000 nM | 100 to 1000 nM | 1000 to 10000 nM | 1000 to 10000 nM |  | < 100 nM |  |  |  |  |  |  | < 100 nM | CCN(c1nc(OC[C@@]23CCCN2C[C@H](F)C3)nc2c(F)c(-c3ccc(F)c4sc(N)c(C#N)c34)c(C(F)(F)F)cc12)[C@@H]1CC(=O)N(C2CC2)C1 (atropisomer, axis not shown) [Compound 703]
20 | < 100 nM | < 100 nM | ≤ 100 nM | ≤ 100 nM | < 100 nM | < 100 nM |  |  |  |  |  |  |  | CCN(c1nc(OC[C@@]23CCCN2C[C@H](F)C3)nc2c(F)c(-c3ccc(F)c4sc(N)c(C#N)c34)c(C(F)(F)F)cc12)[C@H]1C[C@H](C)N(C(=O)N2CC(OC)C2)C1 (atropisomer, axis not shown) [Compound 764]
21 | 100 to 1000 nM | 100 to 1000 nM | 100 to 1000 nM | 100 to 1000 nM | < 100 nM | < 100 nM |  |  |  |  |  |  |  | Cc1c(C(=O)N2CCOCC2)nn2c1CN(c1nc(OCC34CCCN3CC(F)C4)nc3c(F)c(-c4ccc(F)c5sc(N)c(C#N)c45)c(C(F)(F)F)cc13)CC2 (stereo not drawn) [Compound 741]
